Measurements reported in US20150299143A1, “SUBSTITUTED TRIAZOLE AND IMIDAZOLE COMPOUNDS” (HOFFMANN-LA ROCHE INC., priority 2012, published 2015).
pIC50: −log10 of the molar value. Read-outs that look alike come from different tables or passages of the source.

Experiments:
β 2c/2i (trypsin-like) = test: Cell-Based Proteasome subunit activity/selectivity assay, β2c/2i, substrate (KQL)2Rh110; conditions: Ramos cells; substrate (KQL)2Rh110 (β2c/2i); highest concentration tested 20 μM
How it was run: (§1)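 Subunit activity in cultured cells read with subunit-selective fluorogenic Rh110 substrates: (LLE)2 for β1c, (PAL)2 for β1i, (KQL)2 for β2c/2i, (WLA)2 for β5c. Cells exposed to 4-fold serially diluted compound (top 20 μM) 30 min at 37 °C, then substrate 120 min at room temperature; fluorescence 500/519 nm.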

[1] = molecular target: T1, β5c (chymotrypsin-like activity) (Homo sapiens, UniProt P20618+P28074); test: Cell-Based Proteasome subunit activity/selectivity assay, β5c, substrate (WLA)2Rh110
T1 construct: protease activity associated with the proteasome complex in cultured cells; endogenous in cells; host or cells: Ramos cells
How it was run: as §1

β 1c (caspase-like) = molecular target: T2, β 1c (caspase-like) (Homo sapiens, UniProt P28072+Q99436); test: Cell-Based Proteasome subunit activity/selectivity assay, β1c, substrate (LLE)2Rh110
T2 construct: protease activity associated with the proteasome complex in cultured cells; endogenous in cells; host or cells: Ramos cells
How it was run: as §1

[2] = molecular target: T3, β 5i (chymotrypsin-like activity) (Homo sapiens, UniProt P20618+P28062); test: Cell-Based Proteasome subunit activity/selectivity assay, β5i, substrate (ANW)2Rh110; conditions: Ramos cells; substrate (ANW)2Rh110 (β5i); highest concentration tested 20 μM; read-out: Ic50:ramos:ac-(anw)2-r110
T3 construct: protease activity associated with the proteasome complex in cultured cells; endogenous in cells; host or cells: Ramos cells
How it was run: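 Cell-based fluorogenic assay measuring chymotrypsin-like β5i proteasome activity using the substrate (ANW)2Rh110. Cultured cells received 0.5 μl of 100× 4-fold serial diluted compounds or DMSO per well, were incubated 30 minutes at 37° C, then equilibrated 15 minutes at room temperature. After shaking one minute @ 700 rpm and 120 min room-temperature incubation, fluorescence was read at 500 nm excitation/519 nm emission on an Envision reader.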

β 1i (caspase-like) = molecular target: T4, β 1i (caspase-like) (Homo sapiens, UniProt P28065+P40306); test: Cell-Based Proteasome subunit activity/selectivity assay, β1i, substrate (PAL)2Rh110
T4 construct: protease activity associated with the proteasome complex in cultured cells; endogenous in cells; host or cells: Ramos cells
How it was run: as §1

[3] = system: mouse CAIA and CIA arthritis models; conditions: cited from earlier work
[4] = system: DSS-induced colitis model in mice; conditions: cited from earlier work
MRL/lpr lupus-prone mice = conditions: cited from earlier work
[5] = system: Th1/17 differentiation, B cell effector functions and production of inflammatory cytokines (IL-6, TNF-α, IL-23); conditions: cited from earlier work
[6] = Ramos cells, substrate (WLA)2Rh110 (β5c), highest concentration tested 20 μM, read-out: Ic50:ramos:rh110-(wla)2
[7] = Ramos cells, substrate (LLE)2Rh110 (β1c), highest concentration tested 20 μM, read-out: Ic50:ramos:rh110-(lle)2
[8] = Ramos cells, substrate (PAL)2Rh110 (β1i), highest concentration tested 20 μM, read-out: Ic50:ramos:rh110-(pal)2

Structure (SMILES)	pIC50 (β 2c/2i (trypsin-like))	pIC50 [1, 6]	pIC50 (β 1c (caspase-like); [7])	pIC50 [2]	pIC50 (β 1i (caspase-like); [8])	pIC50 [1]	pIC50 (β 1c (caspase-like))	pIC50 (β 1i (caspase-like))	disease score [3]	inflammation and tissue destruction [4]	disease progression (MRL/lpr lupus-prone mice)	plasma cells numbers and levels of anti-dsDNA IgG (MRL/lpr lupus-prone mice)	block of Th1/17 differentiation, B cell effector functions and production of inflammatory cytokines (IL-6, TNF-α, IL-23) [5]
CCOC(=O)[C@H](CCc1ccccc1)NC(=O)c1cn(CCNC(=O)c2ccc(OC)c(OC)c2OC)nn1 [Example 80, (S)-4-Phenyl-2-({1-[2-(2,3,4-trimethoxy-benzoylamino)-ethyl]-1H-[1,2,3]triazole-4-carbonyl}-amino)-butyric acid ethyl ester]	≤ 4.70	≤ 4.70	≤ 4.70	6.35	≤ 4.70	–	–	–	–	–	–	–	–
CCOC(=O)[C@H](CCc1ccccc1)NC(=O)c1cn(CCNC(=O)c2ccc(C(F)(F)F)cc2F)nn1 [Example 81, (S)-2-({1-[2-(2-Fluoro-4-trifluoromethyl-benzoylamino)-ethyl]-1H-[1,2,3]triazole-4-carbonyl}-amino)-4-phenyl-butyric acid ethyl ester]	≤ 4.70	≤ 4.70	≤ 4.70	6.69	≤ 4.70	–	–	–	–	–	–	–	–
O=C(N[C@@H](CCc1ccccc1)C(=O)O)c1cn(CCNC(=O)c2ccc(C(F)(F)F)cc2F)nn1 [Example 82, (S)-2-({1-[2-(2-Fluoro-4-trifluoromethyl-benzoylamino)-ethyl]-1H-[1,2,3]triazole-4-carbonyl}-amino)-4-phenyl-butyric acid]	≤ 4.70	≤ 4.70	≤ 4.70	6.79	≤ 4.70	–	–	–	–	–	–	–	–
COc1ccc(C(=O)NCCn2cc(C(=O)N[C@@H](CCc3ccccc3)C(=O)O)nn2)c(OC)c1OC [Example 83, (S)-4-Phenyl-2-({1-[2-(2,3,4-trimethoxy-benzoylamino)-ethyl]-1H-[1,2,3]triazole-4-carbonyl}-amino)-butyric acid]	≤ 4.70	–	–	6.04	–	5.08	≤ 4.70	≤ 4.70	–	–	–	–	–
COC(=O)[C@H](Cc1cc2ccccc2[nH]1)NC(=O)c1cn(CCNC(=O)c2ccc(C(F)(F)F)cc2F)nn1 [Example 84, (S)-2-({1-[2-(2-Fluoro-4-trifluoromethyl-benzoylamino)-ethyl]-1H-[1,2,3]triazole-4-carbonyl}-amino)-3-(1H-indol-2-yl)-propionic acid methyl ester]	≤ 4.70	≤ 4.70	≤ 4.70	6.79	≤ 4.70	–	–	–	–	–	–	–	–
CCc1ccc(C(C#N)NC(=O)c2cn(CCCNC(=O)c3ccc(C(F)(F)F)cc3OC)nn2)cc1 (stereo not drawn) [Example 85, 1-[3-(2-Methoxy-4-trifluoromethyl-benzoylamino)-propyl]-1H-[1,2,3]triazole-4-carboxylic acid [cyano-(4-ethyl-phenyl)-methyl]-amide]	≤ 4.70	≤ 4.70	≤ 4.70	6.62	≤ 4.70	–	–	–	–	–	–	–	–
CCc1ccc(C(C#N)NC(=O)c2cn(CC/N=C(\SC)c3ccc(OC)c(OC)c3OC)nn2)cc1 (stereo not drawn) [Example 87, N-[2-(4-{[Cyano-(4-ethyl-phenyl)-methyl]-carbamoyl}-[1,2,3]triazol-1-yl)-ethyl]-2,3,4-trimethoxy-thiobenzimidic acid methyl ester]	≤ 4.70	5.07	≤ 4.70	5.61	≤ 4.70	–	–	–	–	–	–	–	–
COc1ccc(C(=O)NCCn2cc(C(=O)N[C@@H](Cc3ccccc3)C(=O)C(=O)NCc3ccccc3)nn2)c(OC)c1OC [Example 88, 1-[2-(2,3,4-Trimethoxy-benzoylamino)-ethyl]-1H-[1,2,3]triazole-4-carboxylic acid ((S)-1-benzyl-2-benzylcarbamoyl-2-oxo-ethyl)-amide]	≤ 4.70	5.07	≤ 4.70	6.34	≤ 4.70	–	–	–	–	–	–	–	–
CCc1ccc(C(C#N)NC(=O)c2nc(CCNC(=O)c3ccc(OC)c(OC)c3OC)n[nH]2)cc1 (stereo not drawn) [Example 89, 5-[2-(2,3,4-Trimethoxy-benzoylamino)-ethyl]-2H-[1,2,4]triazole-3-carboxylic acid [cyano-(4-ethyl-phenyl)-methyl]-amide]	≤ 4.70	≤ 4.70	≤ 4.70	7.27	≤ 4.70	–	–	–	–	–	–	–	–
CCc1ccc(C(C#N)NC(=O)c2nc(CCNC(=O)c3ccc(C(F)(F)F)cc3OC)n[nH]2)cc1 (stereo not drawn) [Example 90, 5-[2-(2-Methoxy-4-trifluoromethyl-benzoylamino)-ethyl]-2H-[1,2,4]triazole-3-carboxylic acid [cyano-(4-ethyl-phenyl)-methyl]-amide]	≤ 4.70	≤ 4.70	≤ 4.70	7.85	≤ 4.70	–	–	–	–	–	–	–	–
CCc1ccc(C(C#N)NC(=O)c2nc(CCNC(=O)c3ccc(C(F)(F)F)cc3F)n[nH]2)cc1 (stereo not drawn) [Example 91, 5-[2-(2-Fluoro-4-trifluoromethyl-benzoylamino)-ethyl]-2H-[1,2,4]triazole-3-carboxylic acid [cyano-(4-ethyl-phenyl)-methyl]-amide]	≤ 4.70	≤ 4.70	≤ 4.70	7.27	≤ 4.70	–	–	–	–	–	–	–	–
CCc1ccc(C(C#N)NC(=O)c2cn(CCNC(=O)c3ccc(C(F)(F)F)cc3OC)cn2)cc1 (stereo not drawn) [Example 92, 1-[2-(2-Methoxy-4-trifluoromethyl-benzoylamino)-ethyl]-1H-imidazole-4-carboxylic acid [cyano-(4-ethyl-phenyl)-methyl]-amide]	≤ 4.70	≤ 4.70	4.74	6.00	≤ 4.70	–	–	–	–	–	–	–	–
COc1cc(C(F)(F)F)ccc1C(=O)NCCn1cnc(C(=O)NC(C#N)c2ccc(Br)cc2)c1 (stereo not drawn) [Example 93, 1-[2-(2-Methoxy-4-trifluoromethyl-benzoylamino)-ethyl]-1H-imidazole-4-carboxylic acid [(4-bromo-phenyl)-cyano-methyl]-amide]	≤ 4.70	≤ 4.70	≤ 4.70	6.30	≤ 4.70	–	–	–	–	–	–	–	–
CCc1ccc(C(C#N)NC(=O)c2cn(CCNC(=O)c3ccc(C(F)(F)F)cc3F)cn2)cc1 (stereo not drawn) [Example 94, 1-[2-(2-Fluoro-4-trifluoromethyl-benzoylamino)-ethyl]-1H-imidazole-4-carboxylic acid [cyano-(4-ethyl-phenyl)-methyl]-amide]	≤ 4.70	≤ 4.70	≤ 4.70	5.99	≤ 4.70	–	–	–	–	–	–	–	–
COc1ccc(C[C@H](NC(=O)[C@H](C)NC(=O)CN2CCOCC2)C(=O)N[C@@H](Cc2ccccc2)C(=O)[C@@]2(C)CO2)cc1 [PR-957]	–	–	–	–	–	–	–	–	significantly decrease disease score	reduced inflammation and tissue destruction	prevented disease progression	reduced plasma cells numbers and levels of anti-dsDNA IgG	potently block
